Results on 6 molecules are retold here after patent US12257294B2, “Therapeutics for autoimmune disease: synthetic antigens” (DANMARKS TEKNISKE UNIVERSITET, priority 2018, dated 2025).

Non-standard residues stand in square brackets, D forms with d. No end group written: not given here. Cit = NC(=O)NCCC[C@H](N)C(=O)O; {NH2} = amino modification

A short description of series [1]: Scanning electron microscopy, nanoparticle size. It is filed as physicochemical. The settings on record: SEM. The method, then:
Nanosight experiment: Nanosight measurement was done in Jang lab, DTU, using Nano sight equipment NTA Version: NTA 3.1 Build 3.1.46 with Script SOP Standard Measurement 03-47-19PM 20D. The cell of the equipment must be cleaned and unscrewed totally by ethanol and Millipore water. 500 μL diluted sample was injected three times for three run and the concentration of Nanoparticles was adjusted using water pH 6 if the concentration of samples doesn't fit the analysis. The size distribution data and the size with maximum number of particles were recorded, see FIG. 10.
Scanning Electron Microscopy (SEM): The morphology of the Chitosan nanoparticles (NP) was investigated using a Quanta FEG 3D scanning electron microscope (SEM). Samples were attached on metal stubs with double-sided adhesive carbon tape and coated with 6 nm of gold for better conductivity using a sputter coater (Leica Coater ACE 200). The average NP diameter was calculated using image J analysis software (National Institutes of Health, MD, USA) measured at different NP for each image.

The subject of series [2] is autoantibodies in plasma of RA patients, SLE and healthy controls. The experiment in a line: ELISA testing of PEP2 and PEP2-nanoconjugates. It is filed as binding, human. Conditions: 30 individuals. The method, then: Prior to ELISA, total amount of protein in each sample was estimated by Bradford method using standard curve of BSA control at known concentration (BioRad). In a maxisorb 96 well plate controls (BSA standard samples at concentrations 2 mg/mL, 1 mg/mL, 0.5 mg/mL and 0.1 mg/mL) and plasma sample were mixed with a Bradford reagent following manufacturer's protocol (BioRad). Plasma samples were used in dilution 1:100. Resulting absorbances at 595 nm were measured on Magellan Tecan microplate reader. Total amount of protein was calculated using standard curve.
ELISA: Maxisorb 96 well plates (NUNC Thermofisher) were coated with nanoparticle antigens/controls at concentration 8 μg/mL in 1×PBS overnight (room temperature; 100 μl/well). After washing with 1×PT (2×300 μl/well, PT: 50 μl Tween-20 in 1 L 1×PBS), the plates were blocked with 1×PTB (1 h, 37° C.; 100 μl/well, PTB: 20 g BSA, 50 μl Tween-20 in 1 L 1×PBS). Incubation with plasma at desired dilution was performed at room temperature for 1.5 h using diluent: 2 g BSA, 50 μl Tween-20 in 1 L 1×PBS (100 μl/well). This was followed by washing (2×300 μl 1×PBS) and incubation with HPR-labelled secondary antibody for 1.5 h at room temperature using same diluent and dilution of the secondary antibody provided by supplier (HPR-conjugated a-aIgG; Sigma). Subsequent washing (2×300 μl PT) and incubation with freshly prepared TMB-H2O2 solution (Sigma; 100 μl/well) was followed by adding a stop solution (1M H2SO4; 50 μl/well) and reading resulting absorbance values at 450 nm on Magellan Tecan microplate reader. Linear range for each antigen was determined via testing series of control dilutions (SLE and healthy controls in dilutions 1:50 to 1:2000). According to the results plasma dilutions 1:100-1:500 were within linear range of the assay for each antigen (R2>0.95).
(An ELISA detects its analyte on a solid surface through an enzyme-linked reagent.)

A further series has as its system NZB/W F1 mice. The experiment in a line: SLE mice study, SLEDAI. It is filed as in vivo. The settings on record: 2 weeks of treatment and 2 weeks after. The method, then: […]1 in 1×PBS was administered by IV in the tail vain every 12 h over 2 weeks, at a conjugate dosage of 160 μg/kg animal weight for 10 nM concentration. 30 mice were tested; 80% were female; average age 20 week; average weight/median 20.2 g (18.4 g-23.1 g). […] (HQ) was used as control, PO, 2 mg/kg, every 24 h over 2 weeks.

A further series relates to purified SLE-antibodies. The series can be described thus: ELISA selectivity of antigens D7 and D8 for purified SLE antibodies. It counts as binding. The settings on record: vs control samples comprising other antibodies. As to the method:
SLE antibodies from sera were captured by affinity chromatography using NHS-sepharose and modified antigens as specified in table 9. […] Sera was pre-treated with CaCl2)/dextran to remove lipoproteins prior to applying to column. Sera sample was added to column; incubated for 4 min; washed at 0.5 ml/min flow rate with 20 mM PBS, 5 column volumes; and finally SLE antibodies were eluted with 3 column volumes of 100 mM glycine-HCl, 10% dioxane pH 2.5-3.
Standard ELISA was used to test the selectivity of D7 and D8. ELISA plates comprising antigens D7 and D8, respectively, were tested for their ability to specifically bind the purified SLE-antibodies compared to control samples comprising other antibodies.

The subject of series [3] is ACPA in RA sera (vs healthy controls and SLE). The experiment in a line: ELISA screening of citrullinated peptide library. It is filed as binding, human. An excerpt:
Citrullinated peptide antigens PEP1-PEP25 (SEQ ID No 9-33) (free amine and carboxy-termini) have been purchased from CALSO, Copenhagen, Denmark, and screened in ELISA of a cohort of 30 RA patients, 30 matched healthy controls and 30 patients with systemic lupus erythematosus. Overall, 16 peptide antigens […], from all the three groups, recognised RA sera.

The subject of the next series is NZB/W mice. The experiment in a line: In vivo mice assay, disease activity index (DAI). The settings on record: control treatment, same regimen. The method, then: For the further in vivo test, a well-described mice model was selected: NZB/W mice, these have been used as a model for autoimmune disease since the early 1960s. Mice of this hybrid cross develop an autoimmune disease resembling human SLE. Nine-week-old NZB/W mice were kindly provided by […] group, Statens Serum Institute, Denmark; they were grown and tested for the presence of anti-dsDNA antibodies as described in example 6. […] Two mice were used for each conjugate. Mice received IV conjugate/control administration (same amount each time), with 12 h intervals for 5 days, and afterwards giving the same dose with 3 day interval over 3 weeks. […] Administration regimen for same as for nanoconjugate complexes: IV in tail vein with 12 h interval for 5 days, and afterwards giving the same dose with 3 day interval. Blood samples were withdrawn at time points: 24 h, 48 h, 1 week, 4 weeks after the beginning of each treatment. Plasma was centrifuged using Qiagen blood storage tubes and stored at -20° C. prior to analyses. ELISA analysis was performed using manufacturer's protocols in sera dilution 1:100 to 1:500. […] At early time points 10 nM conjugate works better than 1 nM.

Take “NP2: Chitosan/Hyaluronic acid/PEG/PEP2 nanoconjugate, presumably non-covalent attachment of peptide to CS/HA (HHPGIAEFPS[Cit]GKSYSYSKQF; ends and bridges not checked; also: presumably non-covalently loaded in chitosan/hyaluronic acid/PEG nanoconjugate)”: the Average nanoparticle size in series [1] stood at 520 nm. Further, in series [2], the “Positive individuals, %: Disease control SLE” value was “(7) %”; the “Positive individuals, %: Healthy” value is “(7) %”; the “Positive individuals, %: Patients with RA” value is given as “(53) %”; the “Positive individuals, n: Disease control SLE” value is on record as 2. In series [2], the “Positive individuals, n: Healthy” value came out at 2 and the “Positive individuals, n: Patients with RA” value came to 16.
For `Oc1ccc(O)cc1` [HQ, Hydroquinone], in the series with NZB/W F1 mice, the “SLEDAI (SLE disease activity index), course” value is reported as “reduces SLEDAI faster; however the disease flares after day 17 in treatment”.
In the case of “NH2-(TCCT)6:(AGGA)6 (TCCTTCCTTCCTTCCTTCCTTCCT; DNA, 5' {NH2}, backbone and methylation of C not given here; further chemistry not fully specified) [Conjugate D8, Pre-annealed amino-modified duplex antigen]”, the “Selectivity for SLE antibodies” value with purified SLE-antibodies was “selective for SLE antibodies”.
For the molecule “NP1: Chitosan/Hyaluronic acid/PEG/PEP2 nanoconjugate, presumably covalent attachment of peptide via PEG to CS/HA (HHPGIAEFPS[Cit]GKSYSYSKQF; ends and bridges not checked; also: presumably covalently attached via PEG to chitosan/hyaluronic acid nanoconjugate)”, the Average nanoparticle size in series [1] is listed as 100-300 nm. In addition, in series [2], the “Positive individuals, %: Disease control SLE” value was “(7) %”; the “Positive individuals, %: Healthy” value was “(3) %”; the “Positive individuals, %: Patients with RA” value is “(57) %”; the “Positive individuals, n: Disease control SLE” value came to 2. Further, in series [2], the “Positive individuals, n: Healthy” value was found to be 1 and the “Positive individuals, n: Patients with RA” value is recorded as 17.
In the case of “HHP GIA EFP S(Cit)G KSY SYS KQF (HHPGIAEFPS[Cit]GKSYSYSKQF) [PEP2]”, in series [3] (30 RA patients), the “Binding in RA samples (share of patients)” value came to 57%. The “Binding in healthy controls (share)” value in series [3] (30 matched healthy controls) turned out to be 0%. Also, the “Binding in SLE (share of patients)” value in series [3] (30 patients with systemic lupus erythematosus) is listed as 7%. Also, in series [2], the “Positive individuals, %: Disease control SLE” value is “(7) %”; the “Positive individuals, %: Healthy” value is given as “(0) %”; the “Positive individuals, %: Patients with RA” value was “(57) %”; the “Positive individuals, n: Disease control SLE” value came to 2. In series [2], the “Positive individuals, n: Healthy” value was determined as 0 and the “Positive individuals, n: Patients with RA” value is 17.
For the molecule Gentamicin [reference compound], the “Effect on DAI” value in the series on NZB/W mice is “only a short term drop in DAI”.
